The assay concerns the target laccase (CotA) (Bacillus sp. HR03, UniProt B9W2C5). In words: biochemical.

Our source for the Kd values is PMC11192927, “The potential of a novel enzyme-based surface plasmon resonance biosensor for direct detection of dopamine” (Scientific Reports, 2024).

The structures appear in SMILES notation.

laccase (CotA), sequence (B9W2C5 1-513): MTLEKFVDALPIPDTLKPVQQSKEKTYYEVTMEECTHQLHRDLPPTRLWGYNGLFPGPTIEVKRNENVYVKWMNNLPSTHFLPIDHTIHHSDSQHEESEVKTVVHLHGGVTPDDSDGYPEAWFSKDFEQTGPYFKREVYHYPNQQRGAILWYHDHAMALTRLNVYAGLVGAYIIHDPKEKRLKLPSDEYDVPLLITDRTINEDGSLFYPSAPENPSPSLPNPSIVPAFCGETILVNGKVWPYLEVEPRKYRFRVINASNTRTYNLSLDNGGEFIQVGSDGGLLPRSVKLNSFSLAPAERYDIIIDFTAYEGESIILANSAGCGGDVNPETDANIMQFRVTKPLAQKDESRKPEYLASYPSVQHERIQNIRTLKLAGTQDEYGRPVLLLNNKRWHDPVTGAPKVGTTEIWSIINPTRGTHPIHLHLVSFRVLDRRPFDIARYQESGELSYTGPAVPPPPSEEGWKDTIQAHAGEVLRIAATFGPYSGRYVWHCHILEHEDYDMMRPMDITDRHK

For orientation: Kd means the free concentration of one partner at which half of the binding sites on the other are occupied at equilibrium, for simple one-to-one binding. A low value points to tighter binding. `NCCc1ccc(O)c(O)c1` [dopamine] gave a Kd of 0.0485 µM.
